Reference: patent publication US11944626B2, “Small molecule inhibitors of ALDH and uses thereof” (The Regents of the University of Michigan, priority 2016, dated 2024)
Counter-ions that a name gives are not always drawn.

Assays:
ALDH2 = target: T1, ALDH2 (Homo sapiens, UniProt P05091); test: Inhibition of ALDH isoenzymes (NAD(P)H formation at 340 nm, purified recombinant enzyme); assay type: biochemical; conditions: compound at 20 μM; read-out: ALDH2 % Control at 20 μM;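 further: run at 25 °C, started by adding substrate after 2 min preincubation, with 100-200 nM ALDH2, 200 µM NAD+, 100 µM propionaldehyde, 1% DMSO in BES buffer pH 7.5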
T1 sequence (P05091 18-517): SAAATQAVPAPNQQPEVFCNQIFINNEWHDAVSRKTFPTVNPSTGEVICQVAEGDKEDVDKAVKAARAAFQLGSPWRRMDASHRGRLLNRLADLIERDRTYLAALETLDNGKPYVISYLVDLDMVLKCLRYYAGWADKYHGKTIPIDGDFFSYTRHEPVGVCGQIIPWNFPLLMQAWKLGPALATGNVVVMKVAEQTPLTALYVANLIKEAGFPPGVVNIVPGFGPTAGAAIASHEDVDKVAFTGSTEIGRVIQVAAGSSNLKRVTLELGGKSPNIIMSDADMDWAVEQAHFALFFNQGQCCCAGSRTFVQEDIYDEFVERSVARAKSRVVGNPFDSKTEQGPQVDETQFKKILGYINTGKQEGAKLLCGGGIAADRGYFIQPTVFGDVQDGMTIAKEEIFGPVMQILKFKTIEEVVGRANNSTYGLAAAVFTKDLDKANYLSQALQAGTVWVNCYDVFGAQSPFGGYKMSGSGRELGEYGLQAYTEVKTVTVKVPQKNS

ALDH1A1 = target: T2, ALDH1A1 (Homo sapiens, UniProt P00352); test: as above; assay type: biochemical; conditions: for IC50: 100-200 nM enzyme, 200 μM NAD+, 100 μM propionaldehyde, pH 7.5, 25° C.; for remaining activity at 20 µM: compound at 20 μM, read-out: ALDH1A1 % Control at 20 μM
T2 sequence (P00352 1-501): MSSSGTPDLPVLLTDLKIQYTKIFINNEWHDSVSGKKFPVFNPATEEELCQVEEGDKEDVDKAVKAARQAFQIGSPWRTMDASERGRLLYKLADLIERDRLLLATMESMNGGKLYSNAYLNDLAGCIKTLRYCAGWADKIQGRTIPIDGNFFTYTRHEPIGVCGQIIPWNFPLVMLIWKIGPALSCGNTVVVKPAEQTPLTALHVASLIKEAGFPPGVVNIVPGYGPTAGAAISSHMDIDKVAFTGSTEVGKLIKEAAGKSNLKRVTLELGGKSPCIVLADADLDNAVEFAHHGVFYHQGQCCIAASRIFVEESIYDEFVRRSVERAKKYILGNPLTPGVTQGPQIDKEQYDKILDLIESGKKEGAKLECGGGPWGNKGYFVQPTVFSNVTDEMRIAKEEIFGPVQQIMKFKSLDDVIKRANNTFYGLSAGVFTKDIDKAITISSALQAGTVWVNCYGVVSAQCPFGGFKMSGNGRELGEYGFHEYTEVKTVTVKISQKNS

ALDH1A2 = target: T3, ALDH1A2 (Homo sapiens, UniProt O94788); test: as above; assay type: biochemical; conditions: for remaining activity at 20 µM: compound at 20 μM, read-out: ALDH1A2 % Control at 20 μM
T3 sequence (O94788 1-518): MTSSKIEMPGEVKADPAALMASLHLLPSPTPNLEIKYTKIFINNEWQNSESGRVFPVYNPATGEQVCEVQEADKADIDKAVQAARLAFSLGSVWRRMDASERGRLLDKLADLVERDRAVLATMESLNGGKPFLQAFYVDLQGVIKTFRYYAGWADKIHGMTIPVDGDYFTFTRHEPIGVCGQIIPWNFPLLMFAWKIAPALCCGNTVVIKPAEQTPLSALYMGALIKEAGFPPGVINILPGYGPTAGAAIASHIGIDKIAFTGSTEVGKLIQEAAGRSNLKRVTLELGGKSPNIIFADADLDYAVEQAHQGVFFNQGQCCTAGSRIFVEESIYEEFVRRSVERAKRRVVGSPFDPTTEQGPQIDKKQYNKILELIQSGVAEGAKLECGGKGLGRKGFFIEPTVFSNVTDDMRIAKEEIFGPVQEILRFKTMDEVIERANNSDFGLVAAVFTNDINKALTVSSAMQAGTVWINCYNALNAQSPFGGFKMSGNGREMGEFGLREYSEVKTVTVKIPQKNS

ALDH1A3 = target: T4, ALDH1A3 (Homo sapiens, UniProt P47895); test: as above; assay type: biochemical; conditions: for remaining activity at 20 µM: compound at 20 μM, read-out: ALDH1A3 % Control at 20 μM
T4 sequence (P47895 1-512): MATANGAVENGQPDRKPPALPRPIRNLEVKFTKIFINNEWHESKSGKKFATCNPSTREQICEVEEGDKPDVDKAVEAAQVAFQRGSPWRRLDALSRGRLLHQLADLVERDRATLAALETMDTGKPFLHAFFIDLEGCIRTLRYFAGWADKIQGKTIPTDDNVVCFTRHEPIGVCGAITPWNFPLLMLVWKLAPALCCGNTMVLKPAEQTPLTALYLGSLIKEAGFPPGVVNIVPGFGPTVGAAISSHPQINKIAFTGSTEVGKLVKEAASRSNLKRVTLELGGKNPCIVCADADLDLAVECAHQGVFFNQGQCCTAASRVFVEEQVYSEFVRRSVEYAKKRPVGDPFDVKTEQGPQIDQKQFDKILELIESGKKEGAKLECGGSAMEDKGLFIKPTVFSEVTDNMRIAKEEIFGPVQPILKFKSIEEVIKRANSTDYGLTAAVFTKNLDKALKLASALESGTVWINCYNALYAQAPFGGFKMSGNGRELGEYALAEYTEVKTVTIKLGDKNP

OVSAHO = OVSAHO Cell Viability; assay type: cell-based; conditions: 30 μM; for OVSAHO Cell Viability (30 μM) % CD133 + % ctrl: CD133+ cells; for OVSAHO Cell Viability (30 μM) Total Cell % ctrl: total cells
[1] = 100-200 nM enzyme, 200 μM NAD+, 100 μM propionaldehyde, pH 7.5, 25° C.

Row | Compound | remaining activity at 20 µM (ALDH2) [%] | IC50 (ALDH1A1) [nM] | IC50 (ALDH1A2; [1]) [nM] | IC50 (ALDH1A3; [1]) [nM] | OVSAHO Cell Viability (30 μM) % CD133 + % ctrl (OVSAHO) [% ctrl] | OVSAHO Cell Viability (30 μM) Total Cell % ctrl (OVSAHO) [% ctrl] | remaining activity at 5 µM (ALDH1A2; compound at 5 μM (footnote *), read-out: ALDH1A2 % Control at 5 μM) [%] | remaining activity at 5 µM (ALDH1A3; compound at 5 μM (footnote *), read-out: ALDH1A3 % Control at 5 μM) [%] | remaining activity at 20 µM (ALDH1A1) [%] | remaining activity at 20 µM (ALDH1A2) [%] | remaining activity at 20 µM (ALDH1A3) [%]
1 | Cn1ncc2c(=O)n(-c3ccccc3)c(SCc3cccc(C(=O)C(F)(F)F)c3)nc21 [Example 57, 1-methyl-5-phenyl-6-((3-(2,2,2-trifluoroacetyl)benzyl)thio)-1H-pyrazolo[3,4-d]pyrimidin-4(5H)-one] | 100 | 73 | 1720 | 1750 | 84 | 29 | – | – | – | – | –
2 | O=c1c2cn(CC3COC3)nc2nc(OCc2cccc(F)c2)n1-c1ccccc1 [Example 63] | 102 | 2280 | – | – | 81 | 18 | 43 | 61 | – | – | –
3 | CC1(Cn2cc3c(=O)n(-c4ccccc4)c(SCc4cccc(F)c4)nc3n2)COC1 [Example 67, 6-((3-fluorobenzyl)thio)-2-((3-methyloxetan-3-yl)methyl)-5-phenyl-2H-pyrazolo[3,4-d]pyrimidin-4(5H)-one] | 97 | – | – | – | 100 | 16 | – | – | 7 | 21 | 4
4 | O=c1c2cn(CC3CNC3)nc2nc(SCc2cccc(F)c2)n1-c1ccccc1 [Example 68, 3-((6-((3-fluorobenzyl)thio)-4-oxo-5-phenyl-4,5-dihydro-2H-pyrazolo[3,4-d]pyrimidin-2-yl)methyl)azetidin-1-ium sulfate] | 93 | – | – | – | – | 16 | – | – | 14 | 14 | 10
5 | C[C@H](Sc1nc2c(cnn2C)c(=O)n1-c1ccccc1)c1ccccc1 [Example 69, (S)-1-methyl-5-phenyl-6-((1-phenylethyl)thio)-1H-pyrazolo[3,4-d]pyrimidin-4(5H)-one] | 95 | – | – | – | 80 | 25 | – | – | 18 | 19 | 9
6 | CCC(Sc1nc2c(cnn2C)c(=O)n1-c1ccccc1)c1ccccc1 (centres unmarked) [Example 70, 1-methyl-5-phenyl-6-((1-phenylpropyl)thio)-1H-pyrazolo[3,4-d]pyrimidin-4(5H)-one] | 90 | – | – | – | 56 | 17 | – | – | -5 | -14 | -10
